Laboratory results: patent US8735414B2 (priority 2009, dated 2014)

Legend:
[1] = tested on: bicistronic HCV replicon (replicon RNA, GenBank Accession No. AJ242654); assay: HCV Replicon Assay; type: cell-based; conditions: Hepatitis C virus, 72 h, read-out: Replicon IC50

## C[C@H](NS(=O)(=O)c1ccc(-c2c(C#N)c3cc(F)c(C4CC4)cc3n2-c2ccccn2)nc1)C(F)(F)F [compound 819, 6-[3-cyano-6-cyclopropyl-5-fluoro-1-(pyridin-2-yl)-1H-indol-2-yl]-N-[(2S)-1,1,1-trifluoropropan-2-yl]pyridine-3-sulfonamide]
other
  melting point: 220 to 223 °C
[1]
  IC50: < 500 nM

## Cc1cc2c(cc1F)c(C#N)c(-c1ccc(S(=O)(=O)N[C@@H](C)C(F)(F)F)cn1)n2-c1occc1C#N [compound 1072, 6-[3-cyano-1-(3-cyanofuran-2-yl)-5-fluoro-6-methyl-1H-indol-2-yl]-N-[(2S)-1,1,1-trifluoropropan-2-yl]pyridine-3-sulfonamide]
other
  melting point: 238 to 243.6 °C
[1]
  IC50: 500 to 2000 nM

## Cc1ccc2c(c1)c(C#N)c(-c1ncc(S(=O)(=O)N[C@@H](C)C(F)(F)F)cn1)n2C1CCCCC1 [compound 390, 2-(3-cyano-1-cyclohexyl-5-methyl-1H-indol-2-yl)-N-[(2S)-1,1,1-trifluoropropan-2-yl]pyrimidine-5-sulfonamide]
other
  melting point: 218 to 223 °C
[1]
  IC50: 500 to 2000 nM

## C[C@H](NS(=O)(=O)c1ccc(-c2c(C#N)c3cc(F)ccc3n2-c2ccc(C(F)(F)F)cn2)nc1)C(F)(F)F [compound 724, 6-{3-cyano-5-fluoro-1-[5-(trifluoromethyl)pyridin-2-yl]-1H-indol-2-yl}-N-[(2S)-1,1,1-trifluoropropan-2-yl]pyridine-3-sulfonamide]
other
  melting point: 216 to 218 °C
[1]
  IC50: 500 to 2000 nM

## C[C@@H](NS(=O)(=O)c1ccc(-c2c(C(N)=O)c3cc(F)c(OC(F)F)cc3n2C2CCCC2)nc1)C(F)(F)F [compound 718, 1-cyclopentyl-6-(difluoromethoxy)-5-fluoro-2-(5-{[(2R)-1,1,1-trifluoropropan-2-yl]sulfamoyl}pyridin-2-yl)-1H-indole-3-carboxamide]
other
  melting point: 218 to 220 °C
[1]
  IC50: < 500 nM

## C[C@@H](NS(=O)(=O)c1ccc(-c2c(C#N)c3ccc(OC(F)F)cc3n2-c2ccccn2)nc1)C(F)(F)F [compound 534, 6-[3-cyano-6-(difluoromethoxy)-1-(pyridin-2-yl)-1H-indol-2-yl]-N-[(2R)-1,1,1-trifluoropropan-2-yl]pyridine-3-sulfonamide]
other
  melting point: 159 to 161 °C
[1]
  IC50: < 500 nM

## Cc1ccc2c(c1)c(C#N)c(-c1ccc(S(=O)(=O)N[C@H](C)C(F)(F)F)cn1)n2C(C)C [compound 485, 6-[3-cyano-5-methyl-1-(propan-2-yl)-1H-indol-2-yl]-N-[(2R)-1,1,1-trifluoropropan-2-yl]pyridine-3-sulfonamide]
other
  melting point: 167 to 173 °C
[1]
  IC50: < 500 nM

## Cc1cc2c(cc1F)c(C(N)=O)c(-c1ccc(S(=O)(=O)N[C@@H](C)C(F)(F)F)cn1)n2C1CCCCC1 [compound 706, 1-cyclohexyl-5-fluoro-6-methyl-2-(5-{[(2S)-1,1,1-trifluoropropan-2-yl]sulfamoyl}pyridin-2-yl)-1H-indole-3-carboxamide]
other
  melting point: 273 to 279 °C
[1]
  IC50: < 500 nM

## CC(C)(C)S(=O)(=O)Nc1ccc(-c2c(C#N)c3cc(F)c(OC(F)F)cc3n2C2CCCCC2)cn1 [compound 1065, N-{5-[3-cyano-1-cyclohexyl-6-(difluoromethoxy)-5-fluoro-1H-indol-2-yl]pyridin-2-yl}-2-methylpropane-2-sulfonamide]
other
  melting point: 278 to 280 °C
[1]
  IC50: < 500 nM

## Cc1cc2c(cc1F)c(C#N)c(-c1ccc(S(=O)(=O)N[C@@H](C)C(F)(F)F)cn1)n2-c1nc(C#N)co1 [compound 1074, 6-[3-cyano-1-(4-cyano-1,3-oxazol-2-yl)-5-fluoro-6-methyl-1H-indol-2-yl]-N-[(2S)-1,1,1-trifluoropropan-2-yl]pyridine-3-sulfonamide]
other
  melting point: 212.2 to 216.9 °C
[1]
  IC50: < 500 nM

## C[C@@H](NS(=O)(=O)c1ccc(-c2c(C#N)c3cc(F)c(OC(F)F)cc3n2C2CCC2)nc1)C(F)(F)F [compound 648, 6-[3-cyano-1-cyclobutyl-6-(difluoromethoxy)-5-fluoro-1H-indol-2-yl]-N-[(2R)-1,1,1-trifluoropropan-2-yl]pyridine-3-sulfonamide]
other
  melting point: 173 to 175 °C
[1]
  IC50: < 500 nM

## N#Cc1ccc2c(C#N)c(-c3ccc(S(=O)(=O)NC(CF)CF)cn3)n(C3CCC3)c2c1 [compound 465, 6-(3,6-dicyano-1-cyclobutyl-1H-indol-2-yl)-N-(1,3-difluoropropan-2-yl)pyridine-3-sulfonamide]
other
  melting point: 203 to 204 °C
[1]
  IC50: < 500 nM

## CCCS(=O)(=O)Nc1ccc(-c2c(C#N)c3ccc(Oc4ncccc4C#N)cc3n2C2CCC2)nc1 [compound 272, N-(6-{3-cyano-6-[(3-cyanopyridin-2-yl)oxy]-1-cyclobutyl-1H-indol-2-yl}pyridin-3-yl)propane-1-sulfonamide]
other
  melting point: 199 to 201 °C
[1]
  IC50: 500 to 2000 nM

## Cc1cc2c(cc1F)c(C(N)=O)c(-c1ccc(S(=O)(=O)N[C@@H](C)C(F)(F)F)cn1)n2-c1cccc(F)n1 [compound 877, 5-fluoro-1-(6-fluoropyridin-2-yl)-6-methyl-2-(5-{[(2S)-1,1,1-trifluoropropan-2-yl]sulfamoyl}pyridin-2-yl)-1H-indole-3-carboxamide]
other
  melting point: 210 to 214 °C
[1]
  IC50: < 500 nM

## Cc1ccc2c(c1)c(C#N)c(-c1ncc(S(=O)(=O)N[C@@H](C)C3CC3)cn1)n2C1CCCC1 [compound 562, 2-(3-cyano-1-cyclopentyl-5-methyl-1H-indol-2-yl)-N-[(1S)-1-cyclopropylethyl]pyrimidine-5-sulfonamide]
other
  melting point: 168 to 171 °C
[1]
  IC50: < 500 nM

## C[C@H](NS(=O)(=O)c1ccc(-c2c(C#N)c3cc(F)c(O)cc3n2C2CCCC2)nc1)C(F)(F)F [compound 576, 6-(3-cyano-1-cyclopentyl-5-fluoro-6-hydroxy-1H-indol-2-yl)-N-[(2S)-1,1,1-trifluoropropan-2-yl]pyridine-3-sulfonamide]
other
  melting point: 214 to 216 °C
[1]
  IC50: < 500 nM

## N#Cc1c(-c2ccc(S(=O)(=O)NC(CF)CF)cn2)n(-c2ccccn2)c2cc(OC(F)F)ccc12 [compound 249, 6-[3-cyano-6-(difluoromethoxy)-1-(pyridin-2-yl)-1H-indol-2-yl]-N-(1,3-difluoropropan-2-yl)pyridine-3-sulfonamide]
other
  melting point: 186 to 190 °C
[1]
  IC50: < 500 nM

## C[C@H](NS(=O)(=O)c1ccc(-c2c(C#N)c3cc(C#N)ccc3n2C2CCCC2)nc1)C(F)(F)F [compound 346, 6-(3,5-dicyano-1-cyclopentyl-1H-indol-2-yl)-N-[(2S)-1,1,1-trifluoropropan-2-yl]pyridine-3-sulfonamide]
other
  melting point: 225 to 228 °C
[1]
  IC50: < 500 nM

## CC(C)(NS(=O)(=O)c1ccc(-c2c(C#N)c3ccc(OC(F)F)cc3n2-c2ccccc2)nc1)C(F)(F)F [compound 612, 6-[3-cyano-6-(difluoromethoxy)-1-phenyl-1H-indol-2-yl]-N-(1,1,1-trifluoro-2-methylpropan-2-yl)pyridine-3-sulfonamide]
other
  melting point: 218 to 220 °C
[1]
  IC50: < 500 nM

## C[C@H](NS(=O)(=O)c1ccc(-c2c(C#N)c3cc(F)ccc3n2-c2ncccn2)nc1)C(F)(F)F [compound 601, 6-[3-cyano-5-fluoro-1-(pyrimidin-2-yl)-1H-indol-2-yl]-N-[(2S)-1,1,1-trifluoropropan-2-yl]pyridine-3-sulfonamide]
other
  melting point: 201 to 203 °C
[1]
  IC50: < 500 nM
